Assay results as given in US7351703B2, “Sulfonylamino carboxylic acid N-arylamides as guanylate cyclase activators” (Sanofi-Aventis Deutschland GmbH, priority 1999, dated 2008).

How the values were obtained:
[1] = molecular target: T1, soluble guanylate cyclase (sGC) (Bos taurus, UniProt P16068); test: Activation of soluble guanylate cyclase (cGMP enzyme immunoassay); format: biochemical; conditions: sGC isolated from bovine lung, stimulation of basal enzyme activity vs solvent control
T1 construct: The sGC employed had been isolated from bovine lung; from tissue; host or cells: bovine lung
T1 sequence (P16068 1-619): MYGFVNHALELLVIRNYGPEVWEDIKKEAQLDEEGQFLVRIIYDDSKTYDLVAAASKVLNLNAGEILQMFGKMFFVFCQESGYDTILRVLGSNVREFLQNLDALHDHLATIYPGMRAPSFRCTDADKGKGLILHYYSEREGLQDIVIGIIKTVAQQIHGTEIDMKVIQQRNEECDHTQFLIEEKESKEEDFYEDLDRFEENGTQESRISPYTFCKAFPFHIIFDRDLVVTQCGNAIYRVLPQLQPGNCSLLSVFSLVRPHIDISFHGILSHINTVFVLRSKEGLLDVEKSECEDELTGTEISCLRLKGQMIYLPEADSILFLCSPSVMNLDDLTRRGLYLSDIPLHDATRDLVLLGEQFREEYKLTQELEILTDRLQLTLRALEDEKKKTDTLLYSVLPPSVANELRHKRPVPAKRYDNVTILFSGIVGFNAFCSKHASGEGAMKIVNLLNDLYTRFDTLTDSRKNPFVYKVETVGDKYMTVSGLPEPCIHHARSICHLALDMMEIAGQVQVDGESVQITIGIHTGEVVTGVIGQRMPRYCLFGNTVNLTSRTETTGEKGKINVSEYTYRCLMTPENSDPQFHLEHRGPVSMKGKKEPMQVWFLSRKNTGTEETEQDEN
T1 sequence (P19687 1-691 partner): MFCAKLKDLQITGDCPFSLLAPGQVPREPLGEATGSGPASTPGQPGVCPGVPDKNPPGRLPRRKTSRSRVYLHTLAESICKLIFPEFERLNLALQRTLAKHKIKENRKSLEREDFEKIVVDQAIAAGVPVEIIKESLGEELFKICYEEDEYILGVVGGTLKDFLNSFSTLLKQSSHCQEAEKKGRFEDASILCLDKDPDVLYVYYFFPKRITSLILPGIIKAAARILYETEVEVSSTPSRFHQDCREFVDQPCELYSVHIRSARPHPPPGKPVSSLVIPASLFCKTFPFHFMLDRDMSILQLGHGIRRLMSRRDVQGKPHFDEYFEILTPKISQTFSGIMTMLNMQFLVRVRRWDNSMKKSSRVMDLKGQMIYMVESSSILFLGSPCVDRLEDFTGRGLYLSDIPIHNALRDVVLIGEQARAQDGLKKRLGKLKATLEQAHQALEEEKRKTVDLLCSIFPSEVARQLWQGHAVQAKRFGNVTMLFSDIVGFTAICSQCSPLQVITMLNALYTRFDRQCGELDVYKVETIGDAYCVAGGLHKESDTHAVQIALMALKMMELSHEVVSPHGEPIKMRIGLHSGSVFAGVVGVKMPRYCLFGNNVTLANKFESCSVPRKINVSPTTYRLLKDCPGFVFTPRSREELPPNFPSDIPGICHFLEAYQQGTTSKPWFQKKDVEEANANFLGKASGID
Experimental: The activation of soluble guanylate cyclase (sGC), which catalyzes the conversion of guanosine triphosphate (GTP) to cyclic guanosine monophosphate (cGMP) and pyrophosphate, by the compounds according to the invention was quantified with the aid of an enzyme immunoassay (EIA) from Amersham. For this, the test substances were first incubated with sGC in microtiter plates and then the quantity of the resulting cGMP was determined.
The sGC employed had been isolated from bovine lung (see Methods in Enzymology, Volume 195, p. 377). The test solutions (100 μl per well) contained 50 mM triethanolamine (TEA) buffer (pH 7.5), 3 mM MgCl2, 3 mM reduced glutathione (GSH), 0.1 mM GTP, 1 mM 3-isobutyl-1-methylxanthine (IBMX), suitably diluted enzyme solution and the test substance or, in the control experiments, solvent. The test substances were dissolved in dimethyl sulfoxide (DMSO) and the solution was diluted with DMSO/water such that the final concentration c of test substance in the test batch had the value indicated below. The DMSO concentration in the test batch was 5% (v/v). The reaction was started by addition of the sGC. The reaction mix was incubated at 37° C. for 15 to 20 minutes and then stopped by ice-cooling and addition of the stop reagent (50 mM EDTA, pH 8.0). An aliquot of 50 μl was taken and employed for the determination of the cGMP content using the acetylation protocol of the Amersham cGMP EIA kit. The absorption of the samples was measured at 450 nm (reference wavelength 620 nm) in a microtiter plate reading apparatus. The cGMP concentration was determined by means of a calibration curve, which was obtained under the same experimental conditions. The activation of the sGC by a test substance is indicated as n-fold stimulation of the basal enzyme activity which was found in the control experiments (with solvent instead of test substance) (calculated according to the formula n-fold stimulation=[cGMP]test substance/[cGMP]control).

Row | Structure (SMILES) | n-fold stimulation ([1]; concentration c 50 μM) [n-fold] | melting point [°C] | n-fold stimulation ([1]; concentration c 10 μM) [n-fold] | n-fold stimulation ([1]; concentration c 100 μM) [n-fold] | n-fold stimulation ([1]; concentration c 25 μM) [n-fold]
1 | O=C(Nc1cccc(C(F)(F)F)c1)c1cc(Br)ccc1NS(=O)(=O)c1ccc(Cl)cc1 [Example 2, 5-Bromo-2-(4-chlorophenylsulfonylamino)-N-(3-trifluoromethylphenyl)benzamide] |  | 220 |  | 9.2 | 
2 | O=C(Nc1ccc2ccccc2c1)c1ccccc1NS(=O)(=O)c1ccc(Cl)cc1 [Example 3, 2-(4-Chlorophenylsulfonylamino)-N-(2-naphthyl)benzamide] |  | 189 |  | 2 | 
3 | O=C(Nc1ccc(Oc2ccc(Cl)cc2)cc1)c1cc(Cl)ccc1NS(=O)(=O)c1ccc(Cl)cc1 [Example 6, 5-Chloro-2-(4-chlorophenylsulfonylamino)-N-(4-(4-chlorophenoxy)phenyl)benzamide] |  | 207 |  | 4.2 | 
4 | O=C(Nc1cccc(C(F)(F)F)c1)c1ccccc1NS(=O)(=O)c1ccc(Cl)cc1 [Example 1, 2-(4-Chlorophenylsulfonylamino)-N-(3-trifluoromethylphenyl)benzamide] |  | 169 |  | 3.6 | 
5 | O=C(Nc1ccc(Oc2ccccc2)cc1)c1ccccc1NS(=O)(=O)c1ccc(Cl)cc1 [Example 7, 2-(4-Chlorophenylsulfonylamino)-N-(4-phenoxyphenyl)benzamide] |  | 143 |  | 2.8 | 
6 | O=C(Nc1ccc(Br)cc1)c1cc(Cl)ccc1NS(=O)(=O)c1ccc(Cl)cc1 [Example 9, 5-Chloro-2-(4-chlorophenylsulfonylamino)-N-(4-bromophenyl)benzamide] |  | 210 |  | 1.6 | 

Further lines, results first:

Row | n-fold stimulation ([1]; concentration c 50 μM) [n-fold] | melting point [°C] | n-fold stimulation ([1]; concentration c 10 μM) [n-fold] | n-fold stimulation ([1]; concentration c 100 μM) [n-fold] | n-fold stimulation ([1]; concentration c 25 μM) [n-fold] | Structure (SMILES)
7 | 2.4 | 226 |  |  |  | CC(=O)c1ccc(NC(=O)c2cc(Cl)ccc2NS(=O)(=O)c2ccc(Cl)cc2)cc1 [Example 24, 5-Chloro-2-(4-chlorophenylsulfonylamino)-N-(4-acetylphenyl)benzamide]
8 |  | 235 | 9.9 |  |  | CS(=O)(=O)N(c1ccc(NC(=O)c2cc(Cl)ccc2NS(=O)(=O)c2ccc(Cl)cc2)cc1)S(C)(=O)=O [Example 15, 5-Chloro-2-(4-chlorophenylsulfonylamino)-N-(4-(bismethylsulfonylamino)phenyl)benzamide]
9 |  | 191 |  |  | 2.2 | O=C(Nc1ccc(OCc2ccccc2)cc1)c1cc(Cl)ccc1NS(=O)(=O)c1ccc(Cl)cc1 [Example 23, 5-Chloro-2-(4-chlorophenylsulfonylamino)-N-(4-(benzyloxy)phenyl)benzamide]
10 |  | 202 |  | 3.2 |  | CCOC(=O)c1cc(NC(=O)c2cc(Cl)ccc2NS(=O)(=O)c2ccc(Cl)c(Cl)c2)ccc1Cl [Example 18, Ethyl 2-chloro-5-(5-chloro-2-(3,4-dichlorophenylsulfonylamino)benzoylamino)benzoate]
11 |  | 211 |  |  | 2.8 | O=C(Nc1ccc2ccccc2c1)c1cc(Cl)ccc1NS(=O)(=O)c1ccc(Cl)cc1 [Example 12, 5-Chloro-2-(4-chlorophenylsulfonylamino)-N-(2-naphthyl)benzamide]
12 |  | 250 |  | 1.8 |  | O=C(Nc1cc(Cl)cc(Cl)c1)c1cc(Cl)ccc1NS(=O)(=O)c1ccc(F)cc1 [Example 13, 5-Chloro-2-(4-fluorophenylsulfonylamino)-N-(3,5-dichlorophenyl)benzamide]
